Results reported in ChEMBL document CHEMBL2439970 (Bioorg Med Chem Lett, 2013).

Experiments:
Assay type in all cases: ADME, organism-based
[1] = Oral bioavailability in Sprague-Dawley rat 2 mg/kg; conditions: in vivo
[2] = Half life in Sprague-Dawley rat at 1 mg/kg, iv and 2 mg/kg, po; conditions: in vivo
Rattus norvegicus = test: Dose normalized AUC in Sprague-Dawley rat 2 mg/kg, po; parameters: dose 2 mg/kg, route oral; conditions: in vivo
[3] = Clearance in Sprague-Dawley rat at 1 mg/kg, iv and 2 mg/kg, po; conditions: in vivo
[4] = Volume of distribution at steady state in Sprague-Dawley rat at 1 mg/kg, iv and 2 mg/kg, po; conditions: in vivo, read-out: Vdss

SMILES | bioavailability [1] | half-life [2] | AUC/dose (Rattus norvegicus) | clearance [3] | Vd [4]
O=C1OCc2cc(CCN3CCN(C(=O)Cc4ccc(-n5cnnn5)cc4)CC3)ccc21 | 33% | 37.2 min | 0.34 µM·kg·h/mg | 40 mL/min/kg | 0.66 L/kg
O=C1OCCc2cc(CCN3CCN(C(=O)Cc4ccc(-n5cnnn5)cc4)CC3)ccc21 | 52% | 30 min | 0.48 µM·kg·h/mg | 43 mL/min/kg | 1.3 L/kg
